SMILES strings stand for the structures.

The results in this text go back to patent US20030176479A1, “Use of selective EP4 receptor agonists for the treatment of liver failure, loss of patency of the ductus arteriosus, glaucoma or ocular hypertension” (priority 2002, published 2003).

The target in this assay is T1, rat EP4 receptor (Rattus norvegicus, UniProt P43114).
T1 construct: expressed in transfected cells
T1 sequence (P43114 whole entry): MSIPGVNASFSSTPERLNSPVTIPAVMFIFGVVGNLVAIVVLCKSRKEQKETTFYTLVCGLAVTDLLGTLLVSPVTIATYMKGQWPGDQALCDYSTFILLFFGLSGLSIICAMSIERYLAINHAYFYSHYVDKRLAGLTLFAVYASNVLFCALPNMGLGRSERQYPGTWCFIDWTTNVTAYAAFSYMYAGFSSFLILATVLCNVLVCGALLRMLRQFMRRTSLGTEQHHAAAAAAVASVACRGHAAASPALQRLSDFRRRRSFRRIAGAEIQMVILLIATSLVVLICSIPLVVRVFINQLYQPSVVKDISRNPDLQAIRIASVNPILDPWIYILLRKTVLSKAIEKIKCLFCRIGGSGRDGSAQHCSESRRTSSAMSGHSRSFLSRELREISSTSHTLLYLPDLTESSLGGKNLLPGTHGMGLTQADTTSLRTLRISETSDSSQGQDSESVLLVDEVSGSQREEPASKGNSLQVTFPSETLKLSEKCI
In words: Cyclic AMP elevation in 293S cell lines stably overexpressing recombinant rat EP4 receptors. Conditions: 293S cells expressing rat EP4, 1 mM IBMX, 12 minutes at 37° C.; read-out: EC50 in the cAMP (rat EP4) elevation assay. Format: cell-based. An excerpt: Determination of Cyclic AMP Elevation in 293S Cell Lines Stably Overexpressing Recombinant Rat EP4 Receptors Assay
cDNA representing the complete open reading frame of the rat EP4 receptor is generated by reverse transcriptase polymerase chain reaction using oligonucleotide primers based on published sequences. The full length coding sequence for the rat EP4 receptor is made in accordance with the procedure in Sando et al., Biochem. Biophys. Res. Comm. 1994, 200, 1329-1333, and RNA from rat kidney (EP4) as templates. 293S cells are transfected with the cloned rat EP4 receptor in pcDNA3 by lipid mediated transfection. Stable cell lines expressing the rat EP4 receptor are established following selection of transfected cells with Geneticin® (Invitrogen Corporation, Carlsbad, Calif.).
Clonal cell lines expressing the maximal number of receptors are chosen following a whole cell ^3H-PGE2 binding assay using unlabeled PGE2 as a competitor. […] Constitutive expression of the receptor in parental 293-S cells is negligible. A stable cell line containing the rat EP4 receptor is grown in Dulbecco's Mosified Eagle Medium/F12 (DMEM/F12) containing 10% fetal bovine serum and G418 (500 μg/ml) to 80% confluency.
cAMP responses in the 293-S/EP4 lines are determined by detaching cells from culture flasks in 1 ml of calcium (Ca++) and magnesium (Mg++) deficient phosphate buffered saline (PBS) via vigorous pounding and then rinsing the cells with calcium (Ca++) and magnesium (Mg++) deficient phosphate buffered saline (PBS). The cells are resuspended in MEM (Minimum Essential Medium), 1% BSA (bovine serum albumin), 50 mM HEPES (N-[2-Hydroxyethyl]piperazine-N′-[2-ethanesulfonic acid]) at 37° C. The cell suspension is counted on a hemacytometer and diluted by adding MEM (Minimum Essential Medium) to a final concentration of 1×10^6 cells/ml, and adding 3-isobutyl-1-methylxanthine (IBMX) to a final concentration of 1 mM. 200 microliters of cell suspension is immediately aliquoted into individual tubes and incubated for 10 minutes, uncovered, at 37° C., 5% CO2, 95% relative humidity. The compound of Formula I or II to be tested in either dimethylsulfoxide (DMSO) or ethanol is then added to cells at 1:100 dilutions such that the final DMSO or ethanol concentration is 1%. Typically, the cells are treated with 6-8 different concentrations (in 1 log increments, such as those described below) of the compound of Formula I or II. Typical concentrations of the compound of Formula I or II in this assay are between 10^−5M to 10^−10M. For example, a six point compound dose response assay tests the compound of Formula I or II at concentrations of 10^−5M, 10^−6M, 10^−7M, 10^−8M, 10^−9M and 10^—10M. Immediately after adding the test compound, the tubes are covered, mixed by inverting two times, and incubated at 37° C. for 12 minutes. Samples are then lysed by incubation at 100° C. for 10 minutes and immediately cooled on ice for 5 minutes to approximately 4° C. Cellular debris is pelleted by centrifugation at 3500×g for 5 minutes at approximately 4° C., and cleared lysates are transferred to fresh tubes. cAMP concentrations are determined using a commercially available ^125I-cAMP radioimmunoassay (RIA) kit (NEK-033, Perkin-Elmer Life Sciences, Inc., Boston, Mass.). The cleared lysates are diluted 1:100 in cAMP RIA assay buffer (included in kit) and centrifuged again. 50 microliters of the resulting supernatant is transferred to a 12×75 mm glass tube and data is collected by scintillation counting using a Wallac Cobra II Gamma Counter (Perkin-Elmer Wallac, Inc., Gaithersburg, Md.). EC50 calculations are performed on a calculator using linear regression analysis on the linear portion of the dose response curves or using Data Fitter.
For orientation: EC50 means the concentration giving half of the maximal effect. As for `O=C(O)CCCCCCN1C(=O)CC[C@@H]1CC[C@@H](O)Cc1cccc(Cl)c1` [Example 1, 7-{2S-[4-(3-Chloro-phenyl)-3R-hydroxy-butyl]-5-oxo-pyrrolidin-1-yl}-heptanoic acid], the EC50 amounted to 0.0088 µM. As to `O=C(O)CCCCCCN1C(=O)CC[C@@H]1CC[C@@H](O)Cc1cccc(C(F)(F)F)c1` [Example 2, 7-{2S-[3R-hydroxy-4-(3-trifluoromethyl-phenyl)-butyl]-5-oxo-pyrrolidin-1-yl}-heptanoic acid], the EC50 came to 0.0132 µM. The value for `O=C1CC[C@H](CCC(O)Cc2cccc(Cl)c2)N1CCCCCCc1nn[nH]n1` (stereo partly drawn) [Example 3, 5S-[4-(3-Chloro-phenyl)-3-hydroxy-butyl]-1-[6-(2H-tetrazol-5-yl)-hexyl]-pyrrolidin-2-one] was 0.0331 µM; that for `O=C1CC[C@H](CC[C@@H](O)Cc2cccc(C(F)(F)F)c2)N1CCCCCCc1nn[nH]n1` [Example 4, 5S-[3R-Hydroxy-4-(3-trifluoromethyl-phenyl)-butyl]-1-[6-(2H-tetrazol-5-yl)-hexyl]-pyrrolidin-2-one] was 0.0702 µM.

For the molecule `O=C1CCC(CCC(O)Cc2cccc(-c3ccccc3)c2)N1CCCCCCc1nn[nH]n1` (stereo not drawn) [Example 6, 5-(4-Biphenyl-3-yl-3-hydroxy-butyl)-1-[6-(2H-tetrazol-5-yl)-hexyl]-pyrrolidin-2-one], the EC50 was found to be 0.175 µM. Regarding `O=C(O)CCCCCCN1C(=O)CCC1CCC(O)Cc1ccccc1` (stereo not drawn) [Example 9, 7-(2-(3-hydroxy-4-phenyl-butyl)-5-oxo-pyrrolidin-1-yl)-heptanoic acid], the EC50 was found to be 0.0325 µM.
